Patent US12247032B2, “Substituted pyrazolo[1,5-a]pyrimidines as inhibitors of JAK kinases” (Genentech, Inc., priority 2019, dated 2025)

What was measured:
[1] = target: T1, recombinant human JAK1 kinase domain protein (Residues 854-1154) (Homo sapiens, UniProt P23458); assay: JAK1 biochemical assay (microfluidic mobility shift, peptide phosphorylation); details: 25 μM ATP, 1 nM total JAK1; Ki calculated from Ki app (tight-binding, competitive); read-out: Biochem JAK1 Ki
T1 construct: human JAK1 kinase domain protein (Residues 854-1154); purchased Proteros Biostructures GmbH (Martinsried, Germany); host or cells: insect cells
T1 sequence (P23458 854-1154): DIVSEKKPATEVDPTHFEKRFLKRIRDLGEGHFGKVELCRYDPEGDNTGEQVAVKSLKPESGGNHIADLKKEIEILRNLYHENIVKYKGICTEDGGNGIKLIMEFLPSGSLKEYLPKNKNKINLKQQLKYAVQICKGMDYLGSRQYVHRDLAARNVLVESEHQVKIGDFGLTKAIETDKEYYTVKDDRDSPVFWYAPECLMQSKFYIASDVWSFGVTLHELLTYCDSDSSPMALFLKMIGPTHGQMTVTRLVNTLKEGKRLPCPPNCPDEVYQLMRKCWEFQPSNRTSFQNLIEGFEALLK
Experimental: (§1) The in vitro biochemical assays quantify JAK-catalyzed phosphorylation of a synthetic peptide, as detected using a LabChip® EZ Reader II microfluidic mobility shift instrument (PerkinElmer; Waltham, MA). The substrate peptide Y-1B has the sequence 5-FAM-VALVDGYFRLTT-NH2. Y-1B is fluorescently labeled on the N-terminus with 5-FAM (5-carboxyfluorescein) and contains a single tyrosine residue (Y) that can be phosphorylated by JAK activity. The substrate peptide stock is prepared in DMSO at 5 mM. Purified recombinant human JAK1 kinase domain protein (Residues 854-1154) was expressed in insect cells and procured from Proteros Biostructures GmbH (Martinsried, Germany). Recombinant human JAK2 kinase domain protein (Residues 812-1132) was expressed in insect cells and purified at Genentech, Inc. (South San Francisco, CA).
(§2) The kinase reaction mixtures contained 100 mM 4-(2-hydroxyethyl)-1-piperazineethanesulfonic acid (HEPES) buffer (pH 7.2), 10 mM magnesium chloride, 0.015% Brij® 35, 4 mM dithiothreitol, 1.5 μM Y-1B peptide substrate, 25 μM adenosine triphosphate (ATP), 1 nM total JAK1 or 0.2 nM total JAK2, and up to 1000 nM test compound in a final concentration of 2% (volume to volume [v/v]) DMSO. In each titration experiment, test compound was tested in duplicate at each of the twelve concentrations. Blank reactions contained ATP, peptide, and DMSO, but no JAK or test compound, whereas uninhibited control reactions contained ATP, peptide, JAK, and DMSO, but no test compound.
(§3) Peptide plus ATP mixture (24 μL) was added to 1 μL of test compound in DMSO (or DMSO alone). The reactions were initiated by adding 25 μL of JAK enzyme to the inhibitor/peptide/ATP mixture before thoroughly mixing the resultant solution. Reactions were incubated at room temperature (22° C.-23° C.) in a final volume of 50 μL per well in 384-well plates. After a 30-minute incubation, the reactions were stopped by adding 25 μL of 150 mM ethylenediaminetetraacetic acid in 100 mM HEPES buffer (pH 7.2) containing 0.015% Brij 35 to each well.
(§4) In each reaction, the residual Y-1B substrate and the phospho-peptide product generated were separated using the EZ Reader 1 instrument. Electrophoretic separation of molecules of product from molecules of substrate was achieved using downstream and upstream voltages of −500 and −2600 V, respectively, at an operating pressure of −1.3 psi. The 5-FAM group present on both the substrate and product peptides was excited at 488 nm, the fluorescence was detected at 530 nm, and the peak heights were reported.
(§5) The extent (or percent) of conversion of substrate to product was calculated from the corresponding peak heights in the electropherogram using HTS Well Analyzer software, Version 5.2 (PerkinElmer), and the following equation (Equation 1): % conversion=[P[…](S+P)]×100 Equation 1 where S and P represent the peak heights of the substrate and product, respectively. After any baseline signal from blank wells containing no JAK was subtracted from the signal of all test wells, the % conversion data were converted to fractional activity as shown in Equation 2, where νi and νo are the % conversion in the presence and absence of test compound, respectively. The % conversion observed in the uninhibited control reactions containing JAK and DMSO vehicle, but no test compound, was defined to have fractional activity=1 (with no inhibitor present, νi=νo), whereas blank wells with no JAK were defined as having fractional activity=0. Fractional activity was plotted against test compound concentration and the data were fitted using XLfit software (IDBS; Guildford, United Kingdom) to a tight-binding apparent inhibition constant (Ki^app) quadratic equation (see Equation 2) (Williams J W, Morrison J F. The kinetics of reversible tight-binding inhibition. Methods Enymol 1979; 63:437-67), which was used to calculate fractional activity and Ki^app […]

[2] = target: T2, Recombinant human JAK2 kinase domain protein (Residues 812-1132) (Homo sapiens, UniProt O60674); assay: JAK2 biochemical assay (microfluidic mobility shift, peptide phosphorylation); details: 25 μM ATP, 0.2 nM total JAK2; Ki calculated from Ki app (tight-binding, competitive); read-out: Biochem JAK2 Ki
T2 construct: human JAK2 kinase domain protein (Residues 812-1132); made in house; host or cells: insect cells
T2 sequence (O60674 812-1132): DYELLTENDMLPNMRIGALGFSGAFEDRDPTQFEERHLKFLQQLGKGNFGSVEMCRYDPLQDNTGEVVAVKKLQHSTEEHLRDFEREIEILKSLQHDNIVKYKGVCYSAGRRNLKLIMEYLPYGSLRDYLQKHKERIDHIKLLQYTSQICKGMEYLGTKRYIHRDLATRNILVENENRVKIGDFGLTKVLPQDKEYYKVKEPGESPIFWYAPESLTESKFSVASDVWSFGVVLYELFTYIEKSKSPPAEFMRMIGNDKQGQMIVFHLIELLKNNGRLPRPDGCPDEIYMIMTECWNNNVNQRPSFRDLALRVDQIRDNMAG
Experimental: as §1, §2, §3, §4, §5

[3] = test system: JAK1 (IL-13-stimulated STAT6 phosphorylation in BEAS-2B cells); assay: P-STAT6 BEAS-2B+IL-13 cell assay; assay type: cell-based, human; details: Homo sapiens, BEAS-2B, 1 h, 1 hour compound, IL-13 15 minutes, IC50 by four-parameter fit, read-out: Cellular JAK1 PSTAT6 BEAS2B + IL13
Experimental: In order to study the effect of JAK1 inhibitors in a cell line that is relevant to the cell biology of human asthma, an IL-13-stimulated STAT6 phosphorylation assay in the human lung bronchial epithelial BEAS-2B cell line was developed.
BEAS-2B cells (ATCC® CRL-9609™) were grown in Bronchial Epithelial Growth Medium (BEGM) (Lonza Catalog No. CC-3170; Walkersville, MD; or PromoCell Catalog No. C-21060; Heidelberg, Germany). Test compound stock solutions (0.5 mM in DMSO) were serially diluted 1:2 in DMSO to generate a 10-point concentration curve (at 500× test concentration), which was further diluted by a 50-fold dilution step in BEGM to generate a 10× concentration curve (in 2% DMSO). Cells were plated at 100,000 cells/well in 200 μL of BEGM in 96-well plates and incubated for 48 hours at 37° C. in a humidified incubator. Medium was aspirated from the cells and replaced with 70 μL of fresh BEGM. Diluted test compound (10 μL; or 2% DMSO in assay medium) was added to the cells, and the plates were incubated for 1 hour at 37° C. in a humidified incubator. Twenty μL of 250 ng/mL human recombinant IL-13 (Bio Techne Catalog No. 213-ILB) was then added to the cells and incubated for 15 minutes at 37° C. Medium was aspirated from the cells and 60 μL of ice-cold 1×cell lysis buffer (Cell Signaling Technologies; Catalog No. 9803S) containing 1 mM PMSF was added to the cells. Assay plates were incubated at −80° C. for at least 1 hour. P-STAT6 was measured by coating GAR plates (MSD; Catalog No. L45RA-1) with rabbit anti-human total STAT6 antibody (Cell Signaling Technologies; Catalog No. 9362S), incubating the cell lysates in the coated plates overnight at 4° C., and then detecting with mouse anti-phospho-STAT6 (Tyr641) Clone 16E12 antibody (Millipore; Catalog No. 05-590, custom labeled by MSD with SULFO-tag) using standard MSD plate processing, washing, and detection protocols. Plates were read on the MESO SECTOR S600.
Data analysis was performed by subtracting negative control values from all wells and determining percent of control using the positive control values; the IC50 was determined with a four-parameter logistic fit model as shown in Equation 4.

| Ki [1] | Ki [2] | SMILES | IC50 [3] |
| --- | --- | --- | --- |
| 0.4 nM | 0.23 nM | O=C(Nc1cn(Cc2nnnn2CCN2CCOCC2)nc1-c1cc(Cl)ccc1OC(F)F)c1cnn2cccnc12 [Example 5, N-[3-[5-chloro-2-(difluoromethoxy)phenyl]-1-[[1-(2-morpholinoethyl)tetrazol-5-yl]methyl]pyrazol-4-yl]pyrazolo[1,5-a]pyrimidine-3-carboxamide] | 15 nM |
| 0.48 nM | 0.24 nM | O=C(Nc1cn(Cc2nnn(C3CCN(C4CCOCC4)CC3)n2)nc1-c1cc(Cl)ccc1OC(F)F)c1cnn2cccnc12 [Example 9, N-[3-[5-chloro-2-(difluoromethoxy)phenyl]-1-[[2-(1-tetrahydropyran-4-yl-4-piperidyl)tetrazol-5-yl]methyl]pyrazol-4-yl]pyrazolo[1,5-a]pyrimidine-3-carboxamide] | 13 nM |
| 0.83 nM | 0.91 nM | O=C(Nc1cn(Cc2nnnn2C2CCNCC2)nc1-c1cc(OC(F)F)ccc1OC(F)F)c1cnn2cccnc12 [Example 24, N-[3-[2,5-bis(difluoromethoxy)phenyl]-1-[[1-(4-piperidyl)tetrazol-5-yl]methyl]pyrazol-4-yl]pyrazolo[1,5-a]pyrimidine-3-carboxamide] | 470 nM |
| 0.77 nM | 0.8 nM | NCCN1CCC(n2nnc(Cn3cc(NC(=O)c4cnn5cccnc45)c(-c4cc(OC(F)F)ccc4OC(F)F)n3)n2)CC1 [Example 25, N-[1-[[2-[1-(2-aminoethyl)-4-piperidyl]tetrazol-5-yl]methyl]-3-[2,5-bis(difluoromethoxy)phenyl]pyrazol-4-yl]pyrazolo[1,5-a]pyrimidine-3-carboxamide] | 300 nM |
| 0.72 nM | 0.62 nM | CN1CC(Cn2nnc(Cn3cc(NC(=O)c4cnn5cccnc45)c(-c4cc(OC(F)F)ccc4OC(F)F)n3)n2)C1 [Example 32, N-[3-[2,5-bis(difluoromethoxy)phenyl]-1-[[2-[(1-methylazetidin-3-yl)methyl]tetrazol-5-yl]methyl]pyrazol-4-yl]pyrazolo[1,5-a]pyrimidine-3-carboxamide] | 22 nM |
| 0.55 nM | 0.56 nM | CN1CC(Cn2nnnc2Cn2cc(NC(=O)c3cnn4cccnc34)c(-c3cc(OC(F)F)ccc3OC(F)F)n2)C1 [Example 33, N-[3-[2,5-bis(difluoromethoxy)phenyl]-1-[[1-[(1-methylazetidin-3-yl)methyl]tetrazol-5-yl]methyl]pyrazol-4-yl]pyrazolo[1,5-a]pyrimidine-3-carboxamide] | 51 nM |
| 0.4 nM | 0.29 nM | CNCCN1CC(n2nnc(Cn3cc(NC(=O)c4cnn5cccnc45)c(-c4cc(OC(F)F)ccc4OC(F)F)n3)n2)C1 [Example 34, N-[3-[2,5-bis(difluoromethoxy)phenyl]-1-[[2-[1-[2-(methylamino)ethyl]azetidin-3-yl]tetrazol-5-yl]methyl]pyrazol-4-yl]pyrazolo[1,5-a]pyrimidine-3-carboxamide] | 180 nM |
| 0.37 nM | 0.18 nM | CSc1ccc(OC(F)F)c(-c2nn(Cc3nnn(CCN)n3)cc2NC(=O)c2cnn3cccnc23)c1 [Example 35, N-[1-[[2-(2-aminoethyl)tetrazol-5-yl]methyl]-3-[2-(difluoromethoxy)-5-methylsulfanyl-phenyl]pyrazol-4-yl]pyrazolo[1,5-a]pyrimidine-3-carboxamide] | 13 nM |
| 0.37 nM | 0.22 nM | CSc1ccc(OC(F)F)c(-c2nn(Cc3nnn(CCN(C)C)n3)cc2NC(=O)c2cnn3cccnc23)c1 [Example 36, N-[3-[2-(difluoromethoxy)-5-methylsulfanyl-phenyl]-1-[[2-[2-(dimethylamino)ethyl]tetrazol-5-yl]methyl]pyrazol-4-yl]pyrazolo[1,5-a]pyrimidine-3-carboxamide] | 17 nM |
| 1.3 nM | 0.69 nM | CN1CCN(CCn2nnc(Cn3cc(NC(=O)c4cnn5cccnc45)c(-c4cc(Cl)ccc4OC(F)F)n3)n2)CC1 [Example 39, N-[3-[5-chloro-2-(difluoromethoxy)phenyl]-1-[[2-[2-(4-methylpiperazin-1-yl)ethyl]tetrazol-5-yl]methyl]pyrazol-4-yl]pyrazolo[1,5-a]pyrimidine-3-carboxamide] | 36 nM |
| 0.78 nM | 0.68 nM | O=C(Nc1cn(Cc2nnn(CCN3CCNCC3)n2)nc1-c1cc(Cl)ccc1OC(F)F)c1cnn2cccnc12 [Example 40, N-[3-[5-chloro-2-(difluoromethoxy)phenyl]-1-[[2-(2-piperazin-1-ylethyl)tetrazol-5-yl]methyl]pyrazol-4-yl]pyrazolo[1,5-a]pyrimidine-3-carboxamide] | 86 nM |
| 0.32 nM | 0.2 nM | CSc1ccc(OC(F)F)c(-c2nn(Cc3nnnn3CCN(C)C)cc2NC(=O)c2cnn3cccnc23)c1 [Example 41, N-[3-[2-(difluoromethoxy)-5-methylsulfanyl-phenyl]-1-[[1-[2-(dimethylamino)ethyl]tetrazol-5-yl]methyl]pyrazol-4-yl]pyrazolo[1,5-a]pyrimidine-3-carboxamide] | 14 nM |
